The record followed here is patent US20020019378A1, “COMPOUNDS” (priority 1997, published 2002).

Where two headings read alike, the source gives them in different places.

Data set [1] has as its target T1, Human Glucocorticoid Receptor (Homo sapiens, UniProt P04150).
T1 construct: endogenous in cells; host or cells: HeLa cells stably transfected with an MMTV-LTR sPAP reporter
T1 sequence (P04150 1-777): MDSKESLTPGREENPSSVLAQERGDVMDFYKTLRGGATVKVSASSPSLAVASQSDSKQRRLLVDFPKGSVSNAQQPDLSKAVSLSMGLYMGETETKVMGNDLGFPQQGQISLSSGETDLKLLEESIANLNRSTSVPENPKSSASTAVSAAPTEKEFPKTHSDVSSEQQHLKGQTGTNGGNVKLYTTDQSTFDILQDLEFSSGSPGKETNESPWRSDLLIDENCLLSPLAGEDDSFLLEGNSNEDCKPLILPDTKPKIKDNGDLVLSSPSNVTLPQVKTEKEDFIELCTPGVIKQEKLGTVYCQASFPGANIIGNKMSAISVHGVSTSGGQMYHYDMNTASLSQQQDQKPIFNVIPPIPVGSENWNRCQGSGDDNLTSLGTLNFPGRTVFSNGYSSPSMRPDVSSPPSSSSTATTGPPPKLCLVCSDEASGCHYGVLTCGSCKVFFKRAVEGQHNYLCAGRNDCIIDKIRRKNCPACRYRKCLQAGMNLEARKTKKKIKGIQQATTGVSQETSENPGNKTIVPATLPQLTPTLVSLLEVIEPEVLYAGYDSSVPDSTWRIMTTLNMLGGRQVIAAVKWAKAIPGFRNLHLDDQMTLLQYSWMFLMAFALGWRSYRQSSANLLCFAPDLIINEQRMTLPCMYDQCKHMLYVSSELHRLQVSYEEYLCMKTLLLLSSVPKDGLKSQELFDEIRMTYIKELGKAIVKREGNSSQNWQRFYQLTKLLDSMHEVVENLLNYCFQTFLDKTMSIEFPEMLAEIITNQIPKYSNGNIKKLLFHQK
Kind of data set: Functional in vitro glucocorticoid activity assay: Hela cells stably transfected with sPAP reporter gene under MMTV LTR promoter. The note with it: 72 hours incubation, values given as 'less than (about)', read-out: EC50 (sPAP transcription, glucocorticoid activity). Type of data set: cell-based. The source says:
The functional assay used was a modification of the method described by T. S Berger et al, of J. of Steroid Biochem. Molec. Biol. 1992, 41 (3-8), 733-738, “Interaction of Glucocorticoid analogues with the Human Glucocorticoid Receptor”. Thus, Hela cells were stably transfected with a detectable reporter gene (secreted placental alkaline phosphatase, sPAP) under the control of a glucocorticoid response promoter (the LTR of the mouse mammary tumour virus, MMTV). Various concentrations of standard (dexamethasone) or compounds of the invention were incubated with transfected Hela cells for 72 hours. At the end of the incubation, substrate ([…]) for sPAP was added and the product measured by a spectrophotometric method. Increased absorbance reflected increased sPAP transcription and concentration-response lines were constructed such that EC50-values could be estimated.

A further data set concerns the target human serum paraoxonase (Homo sapiens, UniProt P27169). Kind of data set: Hydrolysis by human serum paraoxonase (enzymatic hydrolysis test method). Type of data set: in vitro ADME. The note with it: 5% bovine serum albumin, 20 mM CaCl2, 37° C. As to the method:
The compounds herein have relatively short half-lives in blood in vitro. A test method for determining the half-life of the compounds under defined enzymatic hydrolysis conditions in vitro is now described. The test method is believed to provide a suitable indicator as to effects in vivo. In the test method, the hydrolysis of test compounds by a lactonase enzyme is monitored using RP HPLC with UV detection.
The ‘enzymatic hydrolysis test method’ is as follows: Incubations are carried out in 1 ml volumes in an aqueous medium containing 5% bovine serum albumin in the presence of 20 mM CaCl2. The solutions are preincubated at 37° C. for 5 minutes before the addition of the test compound (5 μl of a 5 mg/ml solution in DMSO) and then lactonase enzyme (10 μl to the 1 ml incubations). Control incubations containing no enzyme are also included. The enzymatic hydrolysis is monitored by removal of aliquots and quenching the reaction by the addition of an equal volume of acetonitrile. The samples are vortex mixed, then centrifuged and the supernatants are transferred to autosampler vials for HPLC analysis.
In a suitable HPLC procedure, aliquots (20 μl) of the supernatants are injected onto a Zorbax Rx C8 column (250×4.6mm; Hichrom). The column is maintained at 40° C. and eluted at a flow rate of 1.0 mL/min with a mobile phase of acetonitrile: 50 mM ammonium formate (65:35) adjusted to pH 4.2 with formic acid. Detection is by UV absorbance at 240 nm, and chromatographic peak areas for both parent and metabolite are measured.
In a preferred aspect, the half-life of each compound may be determined by a method in which peak areas are plotted against time on a log-linear scale, and the half lives determined by extrapolation or interpolation of a straight line joining two points.
The above described ‘enzymatic hydrolysis test method’ employs lactonase enzyme. Suitable forms of lactonase enzyme include human serum paraoxonase or a recombinant form thereof, or purified lactonase, obtained from human plasma as described hereinafter. Purification of human serum paraoxonase is described by C E Furlong et al, Chem.Biol.Interactions, Vol 87, p35-48, (1993) and recombinant human serum paraoxonase is described in International Patent application No. WO 96/01322
The susceptibility to hydrolysis by human serum paraoxonase of certain of the compounds of the Examples was assessed using the test protocol of the ‘enzymatic hydrolysis test method’ described herein.

Data set [2] concerns lactonase enzyme purified from human plasma. Type of data set: biochemical. The conditions noted are these: for Restoration of lactonase activity in the presence of EDTA and EGTA: salt added at 100 mM. As to the method: The enzyme activity purified according to A. above was tested with classical inhibitors in order to establish to which enzyme family it belongs. Also, it was investigated whether a divalent cation was required as a co-factor, as disclosed in W. N. Fishbein et al, Journal of Biological Chemistry 1966, 241(21), 4835-4841.

Data set [3] can be described thus: Stability in human plasma test method. The format is in vitro ADME. The note with it: 37° C. How it is done: The stability of various of the compounds of the Examples in human plasma was tested using the following ‘stability in human plasma’ test method: 500 μl aliquots of human plasma in screw capped polypropylene tubes were preincubated at 37° C. in a waterbath for 5 minutes. The plasma samples were then spiked with 5 μl of test compound (nominally 5 mg/ml in DMSO). Aliquots (100 μl ) were removed immediately and after 5 minutes and mixed with an equal volume of acetonitrile. The samples were centrifuged and the supernatants were transferred to autosampler vials for HPLC and half-life analysis.
In the HPLC procedure, aliquots (20 μl) of all the supernatants were injected onto a Zorbax Rx C8 column (250×4.6mm; Hichrom). The column was maintained at 40° C. and eluted at a flow rate of 1.0 mL/min with a mobile phase of acetonitrile: 50 mM ammonium formate (65:35) adjusted to pH 4.2 with formic acid. Detection was by UV absorbance at 240 nm, and chromatographic peak areas for both parent and metabolite were measured
To determine the half-life, for each compound peak areas were plotted against time on a log-linear scale, and the half lives determined by extrapolation or interpolation of a straight line joining two points.

Sequence of human serum paraoxonase (P27169 whole entry): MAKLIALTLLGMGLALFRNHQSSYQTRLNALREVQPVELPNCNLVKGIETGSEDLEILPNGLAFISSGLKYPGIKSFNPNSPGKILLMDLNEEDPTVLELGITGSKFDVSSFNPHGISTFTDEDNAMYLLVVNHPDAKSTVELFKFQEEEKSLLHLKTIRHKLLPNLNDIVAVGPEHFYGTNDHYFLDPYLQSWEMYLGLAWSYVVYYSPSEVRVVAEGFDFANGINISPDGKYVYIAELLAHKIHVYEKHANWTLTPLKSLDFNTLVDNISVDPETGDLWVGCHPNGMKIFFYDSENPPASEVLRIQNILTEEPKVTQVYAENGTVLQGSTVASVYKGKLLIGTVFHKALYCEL

For orientation: EC50 means the concentration giving half of the maximal effect. Regarding `CCC(=O)O[C@]1(C(=O)SCC2CCOC2=O)[C@H](C)C[C@H]2[C@@H]3C[C@H](F)C4=CC(=O)C=C[C@]4(C)[C@@]3(F)[C@@H](O)C[C@@]21C` (single isomer, unassigned) [Example 2, 6α,9α-Difluoro-11β-hydroxy-16α-methyl-3-oxo-17α-propionyloxy-androsta-1,4-diene-17β-carbothioic acid S-(2-oxo-tetrahydro-furan-3-ylmethyl) ester], the EC50 in data set [1] was under 0.25 µM.

`CCC(=O)OC1(C(=O)SC2COC(=O)O2)C(C)CC2C3CC(F)C4=CC(=O)C=CC4(C)C3(F)C(O)CC21C` (single isomer, unassigned) [Example 7 isomer A, 6α,9α-Difluoro-11β-hydroxy-16α-methyl-3-oxo-17α-propionyloxy-androsta-1,4-diene-17β-carbothioic acid S-(2-oxo-1,3-dioxolan-4-yl) ester]: the EC50 in data set [1] was under 0.5 µM. For the same molecule, the “Hydrolysis by human serum paraoxonase” value at human serum paraoxonase is listed as “hydrolysed”.

For `CCC(=O)OC1(C(=O)OC2COC(=O)O2)C(C)CC2C3CC(F)C4=CC(=O)C=CC4(C)C3(F)C(O)CC21C` (single isomer, unassigned; isomer a) [Example 9 isomer A, 6α,9α-Difluoro-11β-hydroxy-16α-methyl-3-oxo-17α-propionyloxy-androsta-1,4-diene-17β-carboxylic acid O-(2-oxo-1,3-dioxolan-4-yl) ester], the “Hydrolysis by human serum paraoxonase” value on human serum paraoxonase is “hydrolysed”.

Turning to `[Ca+2].[Cl-].[Cl-]` [CaCl2], the “Restoration of lactonase activity in the presence of EDTA and EGTA” value in data set [2] was “fully restored”.

Turning to `O=C(O)CN(CCN(CC(=O)O)CC(=O)O)CC(=O)O` [EDTA], the “Inhibition of lactonase activity” value in data set [2] is “totally inhibited”.

On to `O=C(O)CN(CCOCCOCCN(CC(=O)O)CC(=O)O)CC(=O)O` [EGTA], for which the “Inhibition of lactonase activity” value in data set [2] (inhibitor at 1 mM) was “totally inhibited”.

Turning to `C[C@@H]1C[C@H]2[C@@H]3C[C@H](F)C4=CC(=O)C=C[C@]4(C)[C@@]3(F)[C@@H](O)C[C@]2(C)[C@]12OC(=O)SC2=O` [Example 1, 6α,9α-Difluoro-11β-hydroxy-16α-methyl-17-spiro[androsta-1,4-diene-17,5′-[1,3]oxathiolane]-2′,3,4′-trione], the EC50 in data set [1] is under 0.25 µM.

A word on the half-life: it is the time in which the quantity being followed falls by half. Low readings indicate fast loss, high ones slow loss. As for `CSC(=O)[C@@]1(OC(=O)CSC2COC(=O)C2)[C@H](C)C[C@H]2[C@@H]3C[C@H](F)C4=CC(=O)C=C[C@]4(C)[C@@]3(F)[C@@H](O)C[C@@]21C` (stereo partly drawn) [Example 3, 6α,9α-Difluoro-11β-hydroxy-16α-methyl-3-oxo-17α-(2-oxo-tetrahydro-furan-4-ylsulfanyl-acetoxy)-androsta-1,4-diene-17β-carbothioic acid methyl ester], the EC50 in data set [1] was under 0.25 µM. The half-life at 49.5 µg/mL in data set [3] is under 10 min. Further, the “Hydrolysis by human serum paraoxonase” value on human serum paraoxonase is on record as “hydrolysed”.

On to `C[C@]12C=CC(=O)C=C1CC[C@H]1[C@@H]3C[C@H]4CC(=O)O[C@@]4(C(=O)CO)[C@@]3(C)C[C@H](O)[C@@]12F` [Example 5, 9α-Fluoro-11β,17α,21-trihydroxy-3,20-dioxo-pregna-1,4-diene-16α-acetic acid γ-lactone], for which the EC50 in data set [1] was under 0.25 µM.

For the molecule `CCC(=O)O[C@]1(C(=O)SCc2oc(=O)oc2C)[C@H](C)C[C@H]2[C@@H]3C[C@H](F)C4=CC(=O)C=C[C@]4(C)[C@@]3(F)[C@@H](O)C[C@@]21C` [Example 10, 6α,9α-Difluoro-11β-hydroxy-16α-methyl-3-oxo-17α-propionyloxy-androsta-1,4-diene-17β-carbothioic acid S-(5-methyl-2-oxo-1,3-dioxol-4-ylmethyl) ester], the concentration for a half-maximal effect (EC50) in data set [1] was under 0.5 µM. This molecule also yielded a half-life at 49.5 µg/mL in data set [3] of under 10 min.

Take `CCC(=O)OC1(C(=O)OCc2oc(=O)oc2C)C(C)CC2C3CC(F)C4=CC(=O)C=CC4(C)C3(F)C(O)CC21C` (stereo not drawn) [Example 12, 6α,9α-Difluoro-11β-hydroxy-16α-methyl-3-oxo-17α-propionyloxy-androsta-1,4-diene-17β-carboxylic acid O-(5-methyl-2-oxo-1,3-dioxol-4-ylmethyl) ester]: the “Hydrolysis by human serum paraoxonase” value at human serum paraoxonase is “hydrolysed”.

With `[Cl-].[Cl-].[Mg+2]` [MgCl2], in data set [2], the “Restoration of lactonase activity in the presence of EDTA and EGTA” value is on record as “not restored”.

Consider `CNC(=O)Oc1ccc2c(c1)[C@]1(C)CCN(C)[C@@H]1N2C` [eserine], for which the “Inhibition of lactonase activity” value in data set [2] (inhibitor at 50 mM) is listed as “not inhibited”.

In the case of `O=C(O)c1cc[c]([Hg][Cl])cc1` [p-chloromercuribenzoate (PCMB), p-chloromercuribenzoate], the “Inhibition of lactonase activity” value in data set [2] (inhibitor at 1 mM) is “slightly inhibited”.

On to `O=S(=O)(F)Cc1ccccc1` [phenylmethylsulphonyl fluoride (PMSF), phenylmethylsulphonyl fluoride], for which the “Inhibition of lactonase activity” value in data set [2] (inhibitor at 10 mM) is given as “not inhibited”.

For the molecule `O=S(=O)([O-])[O-].[Zn+2]` [zinc sulphate], the “Inhibition of lactonase activity” value in data set [2] (inhibitor at 1 mM) was “totally inhibited”.
